Measurements taken from patent publication US8071587B2, “(Dihydro)imidazoiso[5,1-A]quinolines” (N. V. Organon, priority 2009, dated 2011).

Columns and labels:
human FSH receptor = molecular target: T1, human FSH receptor (Homo sapiens, UniProt P23945); experiment: Agonistic activity at the human FSH receptor expressed in CHO cells, CRE-luciferase reporter (hFSHRago CHO luc); type: cell-based; conditions: CHO cells stably transfected with human FSH receptor and CRE/luciferase reporter; 4 hours of incubation
T1 construct: expressed in transfected cells; host or cells: Chinese Hamster Ovary (CHO) cells, stably transfected, cotransfected with a CRE/promoter-firefly luciferase reporter
T1 sequence (P23945 18-695): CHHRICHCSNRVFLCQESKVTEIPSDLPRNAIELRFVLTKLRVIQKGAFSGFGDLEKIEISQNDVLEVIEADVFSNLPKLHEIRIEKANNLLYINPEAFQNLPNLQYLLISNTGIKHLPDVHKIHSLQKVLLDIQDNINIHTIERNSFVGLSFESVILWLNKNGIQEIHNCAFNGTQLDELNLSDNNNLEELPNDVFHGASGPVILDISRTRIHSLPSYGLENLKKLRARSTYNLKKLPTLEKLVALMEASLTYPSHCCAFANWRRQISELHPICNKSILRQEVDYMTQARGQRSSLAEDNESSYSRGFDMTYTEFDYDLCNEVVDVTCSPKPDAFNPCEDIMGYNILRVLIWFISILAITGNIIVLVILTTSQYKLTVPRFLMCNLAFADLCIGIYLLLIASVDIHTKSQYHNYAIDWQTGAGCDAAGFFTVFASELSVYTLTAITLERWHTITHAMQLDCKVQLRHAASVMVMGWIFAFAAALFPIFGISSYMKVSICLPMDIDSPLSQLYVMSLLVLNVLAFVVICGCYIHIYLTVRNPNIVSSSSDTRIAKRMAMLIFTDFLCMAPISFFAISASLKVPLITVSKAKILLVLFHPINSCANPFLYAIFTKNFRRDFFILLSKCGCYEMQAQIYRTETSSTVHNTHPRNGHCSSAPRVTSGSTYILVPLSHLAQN
Description: The term EC50 means the concentration of the test compound that elicits half-maximal (50%) stimulation compared to the compound's maximally attainable effect. The values can be determined e.g. in a cell line transfected with a FSH receptor gene and cotransfected with a cAMP responsive element/promoter directing the expression of a reporter gene. Values can be determined using a software program such as MathIQ (version 2.0, ID Business Solutions Limited). Agonistic Activity of Compounds at the Human FSH Receptor Expressed in CHO Cells Agonistic activity of the compounds at the human FSH receptor was determined in Chinese Hamster Ovary (CHO) cells stably transfected with the human FSH receptor and cotransfected with a cAMP responsive element (CRE)/promotor directing the expression of a firefly luciferase reporter gene. Binding of the compounds to the Gs protein-coupled FSH receptor will result in an increase of cAMP, which in turn will induce an increased transactivation of the luciferase reporter. Cells (7,500 cells/well of a 384 well plate) were incubated in Dulbecco' minimal essential F12 modified medium (Invitrogen), supplemented with 1 μg/ml bovine insulin, 5 μg/ml human apo-transferrin, 80 U/ml penicillin G and 80 μg/ml streptomycin with the test compounds (concentration between 0.0316 nM and 10.0 μM) in duplicate in a humidified atmosphere (95%) at 5-7% CO2 and 37° C. The final concentration of DMSO was 1%. After 4 hours of incubation, plates were allowed to adjust to room temperature for 1 hour. Then, Luclite (PerkinElmer) solution was added to the wells and cells were allowed to lyse for at least 1 hour at room temperature. Subsequently, luciferase activity was measured in a luminescence counter. The signal is expressed as counts per second (cps). The EC50 (concentration of the test compound that elicits half-maximal (50%) luciferase stimulation compared to the compound's maximally attainable effect) and efficacy values (maximal effect of the test compound as percentage of the maximal effect of recombinant human FSH) of the compounds were determined using the software program MathIQ (version 2.0, ID Business Solutions Limited). EC50 data are indicated at the synthesis examples.

Structure (SMILES) | EC50 (human FSH receptor) [nM] | melting point [°C]
COC1=CC2CCn3c(C(=O)N(C)C(C)(C)C)nc(-c4cccs4)c3C2C=C1c1cccnc1 (stereo not shown) [Example 2a, 8-Methoxy-9-pyridin-3-yl-1-thiophen-2-yl-5,6,6a,10a-tetrahydro-imidazo[5,1-a]isoquinoline-3-carboxylic acid tert-butyl-methyl-amide] | 1 | 
COc1cc2ccn3c(C(=O)N(C)C(C)(C)C)nc(-c4cccs4)c3c2cc1OC(C)C [Example 15j, 9-Isopropoxy-8-methoxy-1-thiophen-2-yl-imidazo[5,1-a]isoquinoline-3-carboxylic acid tert-butyl-methyl-amide] | 6.5 | 163 to 164
CCCCN1CCN(C(=O)c2nc(-c3cccs3)c3n2CCc2cc(OC)c(OC(C)C)cc2-3)CCC1=O [Example 27b, 4-Butyl-1-(9-isopropoxy-8-methoxy-1-thiophen-2-yl-5,6-dihydro-imidazo[5,1-a]isoquinoline-3-carbonyl)-[1,4]diazepan-5-one] | 0.6 | 
C=CCN1CCN(C(=O)c2nc(-c3cccs3)c3n2CCc2cc(OC)c(OC(C)C)cc2-3)CCC1=O [Example 28, 4-Allyl-1-(9-isopropoxy-8-methoxy-1-thiophen-2-yl-5,6-dihydro-imidazo[5,1-a]isoquinoline-3-carbonyl)-[1,4]diazepan-5-one] | 3 | 
COc1cc2c(cc1C=C(F)F)-c1c(-c3cccs3)nc(C(=O)N(C)C(C)(C)C)n1CC2 [Example 39, 9-(2,2-Difluoro-vinyl)-8-methoxy-1-thiophen-2-yl-5,6-dihydro-imidazo[5,1-a]isoquinoline-3-carboxylic acid tert-butyl-methyl-amide] |  | 154 to 155
CCOc1ccc2c(c1)CCn1c(C(=O)N(C)C(C)(C)C)nc(-c3cccs3)c1-2 [Example 40c, 8-Ethoxy-1-thiophen-2-yl-5,6-dihydro-imidazo[5,1-a]isoquinoline-3-carboxylic acid tert-butyl-methyl-amide] |  | 111 to 112

The remaining lines, values ahead:

EC50 (human FSH receptor) [nM] | melting point [°C] | Structure (SMILES)
 | 140 to 143 | COc1cc2c(cc1CCC(C)(C)O)-c1c(-c3cccs3)nc(C(=O)N(C)C(C)(C)C)n1CC2 [Example 41c, 9-(3-Hydroxy-3-methyl-butyl)-8-methoxy-1-thiophen-2-yl-5,6-dihydro-imidazo[5,1-a]isoquinoline-3-carboxylic acid tert-butyl-methyl-amide]
 | 122 to 126 | COc1cc2c(cc1Oc1ccccc1)-c1c(-c3cccs3)nc(C(=O)N(C)C(C)(C)C)n1CC2 [Example 42b, 8-Methoxy-9-phenoxy-1-thiophen-2-yl-5,6-dihydro-imidazo[5,1-a]isoquinoline-3-carboxylic acid tert-butyl-methyl-amide]
 | 123 to 124 | COc1cccc(Oc2cc3c(cc2OC)CCn2c(C(=O)N(C)C(C)(C)C)nc(-c4cccs4)c2-3)c1 [Example 43b, 8-Methoxy-9-(3-methoxy-phenoxy)-1-thiophen-2-yl-5,6-dihydro-imidazo[5,1-a]isoquinoline-3-carboxylic acid tert-butyl-methyl-amide]
 | 112 to 114 | COc1cc2c(cc1OC(C)C)-c1c(-c3cncs3)nc(C(=O)N(C)C(C)(C)C)n1CC2 [Example 47e, 9-Isopropoxy-8-methoxy-1-thiazol-5-yl-5,6-dihydro-imidazo[5,1-a]isoquinoline-3-carboxylic acid tert-butyl-methyl-amide]
 | 141 to 142 | COc1cc2c(c(F)c1CC(C)C)-c1c(-c3cccs3)nc(C(=O)N(C)C(C)(C)C)n1CC2 [Example 48j, 10-Fluoro-9-isobutyl-8-methoxy-1-thiophen-2-yl-5,6-dihydro-imidazo[5,1-a]isoquinoline-3-carboxylic acid tert-butyl-methyl-amide]
5 |  | CCn1nnc(-c2cc3c(cc2OC)CCn2c(C(=O)N(C)C(C)(C)C)nc(-c4cccs4)c2-3)n1 [Example 51c, 9-(2-Ethyltetrazol-5-yl-)-8-methoxy-1-thiophen-2-yl-5,6-dihydro-imidazo[5,1-a]isoquinoline-3-carboxylic acid tert-butyl-methyl-amide]
